Columns and labels:
Type in all cases: biochemical
JAK2 = JAK2 (Homo sapiens (Human), UniProt O60674); test: Purified kinase assay (Z'-LYTE), JAK2; conditions: Table 1; read-out: JAK2 IC50
Method: (§1) JAK and TYK2 tyrosine phosphorylation activity is measured using the Z′-LYTE™ Technology developed by Invitrogen Corporation (Carlsbad, Calif.). For JAK1, JAK2 and JAK3 the Z′-LYTE™ Kinase Assay Kit-Tyr6 Peptide (part number PV4122) was used. For TYK2 the Z′-LYTE™ Kinase Assay Kit-Tyr6 Peptide (part number PV3192) was used. The Z′-LYTE™ biochemical assay employs a fluorescence resonance energy transfer (FRET) coupled-enzyme format and is based on the differential sensitivity of phosphorylated and non-phosphorylated peptides to proteolytic cleavage. The assay uses a synthetic peptide substrate that is labeled with a donor fluorophore (coumarin) and an acceptor fluorophore (fluorescein) that make up a FRET pair. In the primary reaction (the Kinase Reaction), the kinase transfers the γ-phosphate of ATP to a single tyrosine residue on the substrate, while the presence of a kinase inhibitor in the primary reaction suppresses phosphorylation. In the secondary reaction (the Development Reaction), a site-specific protease (the Development Reagent) is added. The development buffer quenches the Kinase Reaction, while the protease recognizes and cleaves non-phosphorylated Z′-LYTE™ peptide substrate. Cleavage disrupts FRET between the donor and acceptor fluorophores on the non-phosphorylated substrate, while uncleaved, phosphorylated substrate maintains FRET.
(§2) To test the ability of candidate molecules to inhibit JAK tyrosine phosphorylation activity, molecules are reconstituted in 100% DMSO and serially diluted 1:10 in polypropylene v-bottom microtiter plates. The candidate molecules are then diluted 1:25 into kinase buffer and 2.5 μl transferred into duplicate wells of a 384 well low volume black microtiter assay plate (Corning, USA). The final DMSO concentration in the assay is 1%. The kinase reaction contains 2.5 μl of a candidate molecule, 5 μl of catalytic domain recombinant Kinase enzyme+Tyr peptide substrate (Invitrogen, CA) and ATP (Invitrogen, CA). The kinase reaction is allowed to proceed for 1 hour at room temperature. The protease reaction is initiated by the addition of Development Reagent (Invitrogen, CA). After 1 hour incubation at room temperature the fluorescence is measured using a FlexStation plate reader (Molecular Devices, Sunnyvale, Calif.). The reader settings used are as follows: Fluorescence mode, endpoint, top read, excitation 400 nm, emission 445 nm and 520 nm, Auto Cutoff 435 nm and 515 nm, PMT sensitivity high, 6 reads per well Inhibition of JAK activity is calculated as the percent phosphorylation of substrate in the presence of inhibitor compared to the percent phosphorylation of substrate in the absence of inhibitor. IC50's were derived using Xlfit 4.3 (IDBS, UK), 4 parameter logistic model 205: Y=(A+((B−A)/(1+((C/x)^D)))).

JAK3 = JAK3 (Homo sapiens (Human), UniProt P52333); test: Purified kinase assay (Z'-LYTE), JAK3; conditions: Table 1; read-out: JAK3 IC50
JAK3, sequence (P52333 822-1111): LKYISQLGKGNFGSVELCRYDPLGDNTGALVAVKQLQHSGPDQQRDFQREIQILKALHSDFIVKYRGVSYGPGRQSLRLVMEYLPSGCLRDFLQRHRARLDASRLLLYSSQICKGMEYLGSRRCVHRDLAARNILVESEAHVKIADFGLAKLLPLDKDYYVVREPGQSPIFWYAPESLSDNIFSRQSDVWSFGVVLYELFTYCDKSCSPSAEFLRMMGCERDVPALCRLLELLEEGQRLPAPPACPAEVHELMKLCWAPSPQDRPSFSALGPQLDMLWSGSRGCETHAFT
Method: as §1, §2

JAK1 = JAK1 (Homo sapiens (Human), UniProt P23458); test: Purified kinase assay (Z'-LYTE), JAK1; conditions: Table 1; read-out: JAK1 IC50
JAK1, sequence (P23458 875-1153): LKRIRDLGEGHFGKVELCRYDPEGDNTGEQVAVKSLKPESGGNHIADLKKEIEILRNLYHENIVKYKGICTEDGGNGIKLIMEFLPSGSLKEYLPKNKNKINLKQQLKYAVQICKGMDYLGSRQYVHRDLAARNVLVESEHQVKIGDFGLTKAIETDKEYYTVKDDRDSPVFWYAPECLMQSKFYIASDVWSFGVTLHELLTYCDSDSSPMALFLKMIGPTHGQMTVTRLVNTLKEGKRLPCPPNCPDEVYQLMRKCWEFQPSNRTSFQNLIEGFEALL
Method: as §1, §2

JAK2, sequence (O60674 849-1124): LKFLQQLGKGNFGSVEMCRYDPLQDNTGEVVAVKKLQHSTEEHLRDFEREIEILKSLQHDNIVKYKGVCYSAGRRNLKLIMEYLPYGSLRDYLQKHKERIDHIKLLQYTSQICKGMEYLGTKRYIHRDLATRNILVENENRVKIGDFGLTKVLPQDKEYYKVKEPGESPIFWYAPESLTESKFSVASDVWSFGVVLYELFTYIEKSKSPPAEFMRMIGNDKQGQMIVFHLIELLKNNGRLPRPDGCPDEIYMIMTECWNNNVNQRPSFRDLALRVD

Compound | IC50 (JAK2) | IC50 (JAK3) | IC50 (JAK1)
CS(=O)(=O)Cc1ccc(Nc2cc(NCc3cccc4ccsc34)c(C(N)=O)nn2)cc1 [Compound 100] | 100 to 1000 nM | 1 to 10 nM | 100 to 1000 nM
CCC(=O)N1CCN(c2ccc(Nc3cc(NCc4cc(F)cc(F)c4)c(C(N)=O)nn3)cc2)CC1 [Compound 31] | 100 to 1000 nM | 1 to 10 nM | > 1000 nM
CC(C)n1cc(Nc2cc(NCc3c(F)cccc3F)c(C(N)=O)nn2)cn1 [Compound 113] | 10 to 100 nM | 1 to 10 nM | 100 to 1000 nM
CS(=O)(=O)Cc1ccc(Nc2cc(NC3CCN(c4ccc(C#N)cn4)CC3)c(C(N)=O)nn2)cc1 [Compound 93] | 10 to 100 nM | 10 to 100 nM | 10 to 100 nM
NC(=O)c1nnc(Nc2ccc(C(=O)N3CCCC3)cn2)cc1NCc1cccc(F)c1 [Compound 73] | 10 to 100 nM | 1 to 10 nM | 100 to 1000 nM
NC(=O)c1nnc(Nc2ccc(N3CCOCC3)cc2)cc1NCc1cc(F)cc(F)c1 [Compound 36] | 100 to 1000 nM | 10 to 100 nM | > 1000 nM
NC(=O)c1nnc(Nc2ccc(N3CCNCC3)cc2)cc1NC1CCCC1 [Compound 13] | 100 to 1000 nM | 100 to 1000 nM | > 1000 nM
CC(=O)N1CCN(c2ccc(Nc3cc(NCc4cccc(-n5ccnc5)c4)c(C(N)=O)nn3)cc2)CC1 [Compound 68] | > 1000 nM | 10 to 100 nM | > 1000 nM
NC(=O)c1nnc(Nc2ccc(N3CCOCC3)cc2)cc1NC1CCC1 [Compound 6, 4-(cyclobutylamino)-6-((4-morpholinophenyl)amino)pyridazine-3-carboxamide] | 100 to 1000 nM | 100 to 1000 nM | > 1000 nM
NC(=O)c1nnc(Nc2ncc(C(=O)N3CCOCC3)s2)cc1NCc1cccc(F)c1 [Compound 77] | > 1000 nM | 10 to 100 nM | > 1000 nM
CC(C)n1cc(Nc2cc(NCc3cccc(F)c3F)c(C(N)=O)nn2)cn1 [Compound 114] | 100 to 1000 nM | 10 to 100 nM | 100 to 1000 nM
NC(=O)c1nnc(Nc2ccc(C(=O)N3CCCC3)cc2)cc1NCc1cc(F)cc(F)c1 [Compound 82] | 100 to 1000 nM | 1 to 10 nM | 100 to 1000 nM
CC(=O)N1CCN(c2ccc(Nc3cc(NCc4ccccn4)c(C(N)=O)nn3)cc2)CC1 [Compound 78] | > 1000 nM | 100 to 1000 nM | > 1000 nM
CC(C)Nc1cc(Nc2ccc(N3CCNCC3)cc2)nnc1C(N)=O [Compound 12] | > 1000 nM | > 1000 nM | > 1000 nM
NC(=O)c1nnc(Nc2ccc3c(c2)CS(=O)(=O)C3)cc1NCc1cccc(F)c1 [Compound 107] | 100 to 1000 nM | 10 to 100 nM | > 1000 nM
Cc1cc(Nc2cc(NCc3cccc(F)c3)c(C(N)=O)nn2)ccc1N1CCOCC1 [Compound 54] | > 1000 nM | 10 to 100 nM | > 1000 nM
NC(=O)c1nnc(Nc2ccc(N3CCOCC3)cc2)cc1NCc1cc(F)ccc1F [Compound 37] | 10 to 100 nM | 10 to 100 nM | > 1000 nM
CC(C)n1cc(Nc2cc(NCc3cccc4ccsc34)c(C(N)=O)nn2)cn1 [Compound 112] | 10 to 100 nM | 1 to 10 nM | 100 to 1000 nM
CS(=O)(=O)c1ccc(Nc2cc(NCc3cccc(F)c3)c(C(N)=O)nn2)cc1 [Compound 84] | > 1000 nM | 100 to 1000 nM | > 1000 nM
CN(C)C(=O)C1CCN(c2ccc(Nc3cc(NCc4ccccc4F)c(C(N)=O)nn3)cc2)CC1 [Compound 86] | 100 to 1000 nM | 10 to 100 nM | > 1000 nM
NC(=O)c1nnc(Nc2ccc(C(=O)N3CCCC3)cc2)cc1NCc1cccc(F)c1F [Compound 83] | 100 to 1000 nM | 1 to 10 nM | > 1000 nM
NC(=O)c1nnc(Nc2ccc(N3CCS(=O)(=O)CC3)cc2)cc1NCc1cccc(F)c1 [Compound 94] | 100 to 1000 nM | 1 to 10 nM | > 1000 nM

Reference: patent US9834548B2, “Pyridazine compounds as JAK inhibitors” (Portola Pharmaceuticals, Inc., priority 2014, dated 2017)
